We go through 41 molecules from patent US10919852B2, “Immunomodulator compounds” (CHEMOCENTRYX, INC., priority 2017, dated 2021).

This experiment has as its target human PD-L1 / Human PD-1 (Homo sapiens (Human), UniProt Q9NZQ7). Nature of the experiment: Enzyme-Linked Immunosorbent Assay (ELISA), PD-1/PD-L1 binding. Conditions: plate-coated human PD-L1, biotinylated human PD-1. As for the experimental part: Biological Example: Enzyme-Linked Immunosorbent Assay—ELISA
96 Well plates were coated with […] of human PD-L1 (obtained from R&D) in PBS overnight at 4° C. The wells were then blocked with 2% BSA in PBS (W/V) with 0.05% TWEEN-20 for 1 hour at 37° C. The plates were washed 3 times with PBS/0.05% TWEEN-20 and the compounds were serial diluted (1:5) in dilution medium and added to the ELISA plates. Human PD-1 and biotin 0.3 μg/mL (ACRO Biosystems) were added and incubated for 1 hour at 37° C. then washed 3 times with PBS/0.05% TWEEN-20. A second block was performed with 2% BSA in PBS (W/V)/0.05% TWEEN-20 for 10 min at 37° C. and was washed 3 times with PBS/0.05% TWEEN-20. Streptavidin-HRP was added for 1 hour at 37° C. then washed 3 times with PBS/0.05% TWEEN-20. TMB substrate was added and reacted for 20 min at 37° C. A stop solution (2 N aqueous H2SO4) was added. The absorbance was read at 450 nm using a micro-plate spectrophotometer.
Background: In an ELISA, binding on a coated surface is turned into a signal by an enzyme label.

Chain of human PD-L1 / Human PD-1 (Q9NZQ7 19-239): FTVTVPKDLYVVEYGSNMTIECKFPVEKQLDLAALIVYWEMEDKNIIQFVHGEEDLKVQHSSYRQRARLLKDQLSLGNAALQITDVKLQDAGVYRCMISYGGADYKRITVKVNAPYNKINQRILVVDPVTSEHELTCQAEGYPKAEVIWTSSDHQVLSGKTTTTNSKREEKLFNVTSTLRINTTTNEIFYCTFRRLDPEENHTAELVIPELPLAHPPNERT

The term IC50 denotes the midpoint of a concentration-inhibition curve. `C[C@@](CO)(NCc1cc(Cl)c(O[C@H]2CCc3c(-c4cccc(OCCCN5CCC(O)CC5)c4F)cccc32)cc1OCc1cncc(C#N)c1)C(=O)O` displayed an IC50 of less than 5 nM.

Consider `CCOc1cc(O[C@H]2CCc3c(-c4cccc(OCCCN5CCC(O)CC5)c4C)cccc32)c(Cl)cc1CN[C@@H](CO)C(=O)O`, for which the IC50 was less than 5 nM.

As to `CCOc1cc(O[C@H]2CCc3c(-c4cccc(OCCCN5CCC(O)CC5)c4C)cccc32)c(Cl)cc1CN[C@H](C(=O)O)[C@@H](C)O`, the IC50 was less than 5 nM.

Take `CCOc1cc(O[C@H]2CCc3c(-c4cccc(OCCCN5CC[C@@H](O)C5)c4C)cccc32)c(Cl)cc1CN[C@@H](CO)C(=O)O`: the IC50 was less than 5 nM.

Molecule `Cc1c(OCCCN2CCC(O)(C(=O)O)CC2)cccc1-c1cccc2c1CC[C@@H]2Oc1cc(OCc2cncc(C#N)c2)c(CN[C@H](C(=O)O)[C@@H](C)O)cc1Cl` gave an IC50 of less than 5 nM.

In turn, `CC(CO)(CO)NCc1cc(Cl)c(O[C@H]2CCc3c(-c4cccc(OCCCN5CCNC(=O)C5)c4Cl)cccc32)cc1OCc1cncc(C#N)c1` registered an IC50 of less than 5 nM.

`N#Cc1cncc(COc2cc(O[C@H]3CCc4c(-c5cccc(OCCCN6CCNC(=O)C6)c5Cl)cccc43)c(Cl)cc2CNC2(C(=O)O)CCC2)c1` registered a half-inhibitory concentration (IC50) of less than 5 nM.

`N#Cc1cncc(COc2cc(O[C@H]3CCc4c(-c5cccc(OCCCN6CC7(CC(F)C7)C6)c5Cl)cccc43)c(Cl)cc2CN[C@@H]2CCCC[C@@H]2O)c1` yielded an IC50 of less than 5 nM.

In the case of `N#Cc1cncc(COc2cc(O[C@H]3CCc4c(-c5cccc(OCCCN6CC7(C6)CC(F)(F)C7)c5Cl)cccc43)c(Cl)cc2CN[C@@H]2CCCC[C@@H]2O)c1`, the concentration for half-maximal inhibition (IC50) was less than 5 nM.

In turn, `Cc1c(OCCCNCC(C)(C)O)cccc1-c1cccc2c1CC[C@@H]2Oc1cc(OCc2cncc(C#N)c2)c(CNCC2CCC(=O)N2)cc1Cl` (some centres unmarked) registered an IC50 of less than 5 nM.

As for `N#Cc1cc(C#N)cc(COc2cc(O[C@@H]3c4cccc(-c5cccc(OCCCN6CC(O)C6)c5Cl)c4C[C@@H]3F)c(Cl)cc2CNC[C@@H]2CCC(=O)N2)c1`, the half-inhibitory concentration (IC50) is 5 to 500 nM.

For `N#Cc1cncc(COc2cc(O[C@H]3CCc4c(-c5cccc(OCCCN6CCC(F)CC6)c5C(F)(F)F)cccc43)c(Cl)cc2CNCC2CCC(=O)N2)c1` (some centres unmarked), the IC50 lay in the range of 5 to 500 nM.

`CC(C)(O)[C@H](NCc1cc(Cl)c(O[C@H]2CCc3c(-c4cccc(OCCCN5CCC(F)CC5)c4Cl)cccc32)cc1OCc1cncc(C#N)c1)C(=O)O` gave a 50% inhibitory concentration (IC50) of less than 5 nM.

In turn, `N#Cc1cncc(COc2cc(O[C@H]3CCc4c(-c5cccc(OCCCN6CCC(F)CC6)c5Cl)cccc43)c(Cl)cc2CN2CCCC3(C2)NC(=O)NC3=O)c1` (some centres unmarked) gave an IC50 of 5 to 500 nM.

Turning to `CCOc1cc(O[C@H]2CCc3c(-c4cccc(OCCCN5CCC(F)CC5)c4Cl)cccc32)c(Cl)cc1CN[C@@H]1CCCC[C@@H]1O`, the IC50 was in the range of 5 to 500 nM.

For the molecule `CCOc1cc(O[C@H]2CCc3c(-c4cccc(OCCCN5CCC(F)CC5)c4Cl)cccc32)c(Cl)cc1CNCC1CCC(=O)N1` (some centres unmarked), the IC50 was 5 to 500 nM.

Consider `N#Cc1cncc(COc2cc(O[C@H]3CCc4c(-c5cccc(OCCCN6CCC(F)CC6)c5C#N)cccc43)c(Cl)cc2CNCC2CCC(=O)N2)c1` (some centres unmarked), for which the IC50 lay within 5 to 500 nM.

Consider `CC(C)OC(=O)[C@](C)(CO)NCc1cc(Cl)c(O[C@H]2CCc3c(-c4cccc(OCCCN5CC(O)C5)c4Cl)cccc32)cc1OCc1cncc(C#N)c1`, for which the IC50 was less than 5 nM.

Regarding `Cc1c(OCCCN2CC(F)C2)cccc1-c1cccc2c1CC[C@@H]2Oc1cc(OCc2cncc(C#N)c2)c(CNCC2CCC(=O)N2)cc1Cl` (some centres unmarked), the concentration for half-maximal inhibition (IC50) was less than 5 nM.

With `N#Cc1cc(C#N)cc(COc2cc(O[C@@H]3c4cccc(-c5cccc(OCCCN6CC(O)C6)c5Cl)c4C[C@@H]3F)c(Cl)cc2CNC[C@H]2CCC(=O)N2)c1`, the IC50 is less than 5 nM.

Consider `C[C@@](CO)(NCc1cc(Cl)c(O[C@@H]2c3cccc(-c4cccc(OCCCN5CC(O)C5)c4Cl)c3C[C@@H]2F)cc1OCc1cc(C#N)cc(C#N)c1)C(=O)O`, for which the IC50 was less than 5 nM.

In turn, `N#Cc1cncc(COc2cc(O[C@H]3CCc4c(-c5cccc(OCCCN6CC(O)C6)c5C(F)(F)F)cccc43)c(Cl)cc2CNCC2CCC(=O)N2)c1` (some centres unmarked) had an IC50 of 5 to 500 nM.

Turning to `Cc1c(OCCCN2CC3(CC(F)C3)C2)cccc1-c1cccc2c1CC[C@@H]2Oc1cc(OCc2cncc(C#N)c2)c(CNCC2CCC(=O)N2)cc1Cl` (some centres unmarked), the IC50 lay in the range of 5 to 500 nM.

In the case of `CCOc1cc(O[C@H]2CCc3c(-c4cccc(OCCCN5CC(O)C5)c4Cl)cccc32)c(Cl)cc1CN[C@@H]1CCCC[C@@H]1O`, the IC50 was 5 to 500 nM.

Take `CCOc1cc(O[C@H]2CCc3c(-c4cccc(OCCCN5CC(O)C5)c4Cl)cccc32)c(Cl)cc1CNCC1CCC(=O)N1` (some centres unmarked): the IC50 was in the range of 5 to 500 nM.

Regarding `N#Cc1cncc(COc2cc(O[C@H]3CCc4c(-c5cccc(OCCCN6CC(F)(F)C6)c5Cl)cccc43)c(Cl)cc2CN[C@@H]2CCCC[C@@H]2O)c1`, the IC50 fell in the range of 5 to 500 nM.

For the molecule `N#Cc1cncc(COc2cc(O[C@H]3CCc4c(-c5cccc(OCCCN6CC[C@@H](F)C6)c5Cl)cccc43)c(Cl)cc2CN[C@@H]2CCCC[C@@H]2O)c1`, the IC50 was less than 5 nM.

As for `N#Cc1cncc(COc2cc(O[C@H]3CCc4c(-c5cccc(OCCCN6CCC(F)CC6)c5Cl)cccc43)c(Cl)cc2CN[C@@H]2CCCC[C@@H]2O)c1`, the 50% inhibitory concentration (IC50) is less than 5 nM.

As to `N#Cc1cncc(COc2cc(O[C@H]3CCc4c(-c5cccc(OCCCN6CC[C@H](F)C6)c5Cl)cccc43)c(Cl)cc2CN[C@@H]2CCCC[C@@H]2O)c1`, the IC50 is less than 5 nM.

`N#Cc1cc(C#N)cc(COc2cc(O[C@@H]3c4cccc(-c5cccc(OCCCN6CCC(F)CC6)c5Cl)c4C[C@H]3F)c(Cl)cc2CNC[C@H]2CCC(=O)N2)c1` came in with an IC50 of 5 to 500 nM.

For the molecule `N#Cc1cc(C#N)cc(COc2cc(O[C@@H]3c4cccc(-c5cccc(OCCCN6CC(F)C6)c5Cl)c4C[C@H]3F)c(Cl)cc2CNC[C@H]2CCC(=O)N2)c1`, the half-inhibitory concentration (IC50) fell in the range of 5 to 500 nM.

`CCOc1cc(O[C@H]2CCc3c(-c4cccc(OCCCN5CCC(F)CC5)c4Cl)cccc32)c(Cl)cc1CNC(C)(CO)CO` registered an IC50 of 5 to 500 nM.

The molecule `CCOc1cc(O[C@@H]2c3cccc(-c4cccc(OCCCN5CCC(F)CC5)c4Cl)c3C[C@@H]2F)c(Cl)cc1CNC[C@H]1CCC(=O)N1` yielded an IC50 of 5 to 500 nM.

For `CCOc1cc(O[C@@H]2c3cccc(-c4cccc(OCCCN5CCC(F)CC5)c4Cl)c3C[C@@H]2F)c(Cl)cc1CN[C@@H]1CCCC[C@@H]1O`, the IC50 was 5 to 500 nM.

`CC1(O)CN(CCCOc2cccc(-c3cccc4c3CC[C@@H]4Oc3cc(OCc4cncc(C#N)c4)c(CN[C@@](C)(CO)C(=O)O)cc3Cl)c2Cl)C1` registered an IC50 of less than 5 nM.

The molecule `CCOc1cc(O[C@@H]2c3cccc(-c4cccc(OCCCN5CC(F)C5)c4Cl)c3C[C@@H]2F)c(Cl)cc1CN[C@@](C)(CO)C(=O)O` yielded an IC50 of 5 to 500 nM.

Turning to `CCOC(=O)[C@](C)(CO)NCc1cc(Cl)c(O[C@H]2CCc3c(-c4cccc(OCCCN5CC(O)C5)c4Cl)cccc32)cc1OCc1cncc(C#N)c1`, the IC50 is less than 5 nM.

In the case of `CCOc1cc(O[C@@H]2c3cccc(-c4cccc(OCCCN5CC(O)C5)c4Cl)c3C[C@@H]2F)c(Cl)cc1CN[C@@](C)(CO)C(=O)O`, the concentration for half-maximal inhibition (IC50) lay within 5 to 500 nM.

For the molecule `C[C@@](CO)(NCc1cc(Cl)c(O[C@@H]2c3cccc(-c4cccc(OCCCN5CC(O)C5)c4Cl)c3C[C@@H]2F)cc1OCc1cncc(C#N)c1)C(=O)O`, the IC50 is less than 5 nM.

`C[C@@](CO)(NCc1cc(Cl)c(O[C@@H]2c3cccc(-c4cccc(OCCCN5CC(F)C5)c4Cl)c3C[C@@H]2F)cc1OCc1cncc(C#N)c1)C(=O)O` returned an IC50 of less than 5 nM.

The molecule `COc1cc(O[C@H]2CCc3c(-c4cccc(OCCCN5CCC(F)CC5)c4Cl)cccc32)c(Cl)cc1CN[C@@H]1CCCC[C@@H]1O` came in with an IC50 of 5 to 500 nM.
